Some results are limits rather than exact numbers.

Common to all, as to assay type: functional
Assay [1] relates to Botrytis cinerea. In words: Fungicidal activity against Botryotinia fuckeliana assessed as cucumber gray mold disease control at 31.3 ppm treated on upper surface of leaf 24 hr before inoculation at 22 +/- 2 degC measured after 3 days by preventive manner.
Assay [2] has as its system Pseudoperonospora cubensis. In words: Fungicidal activity against Pseudoperonospora cubensis assessed as cucumber downy mildew disease control at 500 ppm foliar application 24 hr before inoculation onto the adaxial(treated) surface of leaf by preventive manner.
Assay [3] deals with Pseudoperonospora cubensis. In words: Fungicidal activity against Pseudoperonospora cubensis assessed as cucumber downy mildew disease control at 500 ppm foliar application 24 hr before inoculation onto the abaxial(treated) surface of leaf by preventive manner.
Assay [4] has as its system Podosphaera fuliginea. The experiment in a line: Fungicidal activity against Podosphaera fuliginea assessed as cucumber powdery mildew disease control at 31.3 ppm treated on upper surface of leaf 24 hr before inoculation at 23 +/- 2 degC measured after 10 days by preventive manner.
In assay [5] the test system is Pseudoperonospora cubensis. The experiment in a line: Fungicidal activity against Pseudoperonospora cubensis assessed as cucumber downy mildew disease control at 125 ppm foliar application 24 hr after inoculation by curative manner.
For assay [6], the system named is Pseudoperonospora cubensis. The experiment in a line: Fungicidal activity against Pseudoperonospora cubensis assessed as cucumber downy mildew disease control at 125 ppm foliar application 24 hr before inoculation onto the adaxial(treated) surface of leaf by preventive manner.
In assay [7] the test system is Pseudoperonospora cubensis. The experiment in a line: Fungicidal activity against Pseudoperonospora cubensis assessed as cucumber downy mildew disease control at 31.3 ppm foliar application 24 hr after inoculation by curative manner.
For assay [8], the system named is Pseudoperonospora cubensis. In words: Fungicidal activity against Pseudoperonospora cubensis assessed as cucumber downy mildew disease control at 2 ppm foliar application 24 hr before inoculation onto the adaxial(treated) surface of leaf by preventive manner.
Assay [9] has as its system Pseudoperonospora cubensis. The experiment in a line: Fungicidal activity against Pseudoperonospora cubensis assessed as cucumber downy mildew disease control at 31.3 ppm foliar application 24 hr before inoculation onto the adaxial(treated) surface of leaf by preventive manner.
Assay [10] deals with Pseudoperonospora cubensis. In words: Fungicidal activity against Pseudoperonospora cubensis assessed as cucumber downy mildew disease control at 2 ppm foliar application 24 hr before inoculation onto the abaxial(treated) surface of leaf by preventive manner.
Assay [11] has as its system Botrytis cinerea. The experiment in a line: Fungicidal activity against Botryotinia fuckeliana assessed as cucumber gray mold disease control at 7.8 ppm treated on upper surface of leaf 24 hr before inoculation at 22 +/- 2 degC measured after 3 days by preventive manner.
The subject of assay [12] is Pseudoperonospora cubensis. In words: Fungicidal activity against Pseudoperonospora cubensis assessed as cucumber downy mildew disease control at 31.3 ppm foliar application 24 hr before inoculation onto the abaxial(treated) surface of leaf by preventive manner.
Assay [13] relates to Pseudoperonospora cubensis. In words: Fungicidal activity against Pseudoperonospora cubensis assessed as cucumber downy mildew disease control at 2 ppm foliar application 24 hr after inoculation by curative manner.
The test system of assay [14] is Pseudoperonospora cubensis. In words: Fungicidal activity against Pseudoperonospora cubensis assessed as cucumber downy mildew disease control at 7.8 ppm foliar application 24 hr before inoculation onto the abaxial(treated) surface of leaf by preventive manner.
The test system of assay [15] is Podosphaera fuliginea. In words: Fungicidal activity against Podosphaera fuliginea assessed as cucumber powdery mildew disease control at 7.8 ppm treated on upper surface of leaf 24 hr before inoculation at 23 +/- 2 degC measured after 10 days by preventive manner.
In assay [16] the test system is Pseudoperonospora cubensis. The experiment in a line: Fungicidal activity against Pseudoperonospora cubensis assessed as cucumber downy mildew disease control at 7.8 ppm foliar application 24 hr before inoculation onto the adaxial(treated) surface of leaf by preventive manner.
Assay [17] concerns Pseudoperonospora cubensis. The experiment in a line: Fungicidal activity against Pseudoperonospora cubensis assessed as cucumber downy mildew disease control at 7.8 ppm foliar application 24 hr after inoculation by curative manner.
The test system of assay [18] is Pseudoperonospora cubensis. In words: Fungicidal activity against Pseudoperonospora cubensis assessed as cucumber downy mildew disease control at 125 ppm foliar application 24 hr before inoculation onto the abaxial(treated) surface of leaf by preventive manner.
In assay [19] the test system is Podosphaera fuliginea. In words: Fungicidal activity against Podosphaera fuliginea assessed as cucumber powdery mildew disease control at 500 ppm treated on upper surface of leaf 24 hr before inoculation at 23 +/- 2 degC measured after 10 days by preventive manner.
Assay [20] deals with Botrytis cinerea. In words: Fungicidal activity against Botryotinia fuckeliana assessed as cucumber gray mold disease control at 500 ppm treated on upper surface of leaf 24 hr before inoculation at 22 +/- 2 degC measured after 3 days by preventive manner.

`CCCCOc1ccc(/C(C)=N/OCc2ccccc2C(OC)C(=O)NC)cc1` (racemic): the Activity in assay [1] is recorded as 50%; in assay [2], 90%; in assay [3], less than 90%; in assay [4], 90%.

On to `CNC(=O)C(OC)c1ccccc1CO/N=C(\C)c1ccc(C(F)(F)F)cc1` (racemic), for which the Activity in assay [5] is listed as 75%; in assay [6], 100%; in assay [7], 70%; in assay [8] it was 100%; in assay [9], 100%; in [10], 15%. Moreover, the Activity amounted to 50% in assay [11]; 91% in [12]; 25% in assay [13]; 100% in assay [2]; 40% in assay [14]; 100% in [3]. The Activity came to 90% in [15], 100% in assay [16], 40% in assay [17] and 96% in assay [18].

Regarding `CNC(=O)C(OC)c1ccccc1CO/N=C(\C)c1ccc(F)cc1` (racemic), the Activity in assay [1] turned out to be 50%; in assay [9], 90%; in assay [12], 90%; in assay [15], 90%.

For the molecule `CNC(=O)C(OC)c1ccccc1CO/N=C(\C)c1ccc(Cl)cc1Cl` (racemic), the Activity in assay [1] was 50%; in [3] it was less than 90%; in [4], 90%.

For the molecule `CNC(=O)C(OC)c1ccccc1CO/N=C(\C)c1cc(C)ccc1C` (racemic), the Activity is 90% in assay [19], 90% in [2], less than 90% in assay [3] and less than 50% in assay [20].

For the molecule `CNC(=O)C(OC)c1ccccc1CO/N=C(\C)c1cc(C)cc(C)c1C` (racemic), the Activity is on record as 90% in assay [2], less than 90% in [3], 50% in [20] and 90% in [15].

On to `CCOc1ccc(/C(C)=N/OCc2ccccc2C(OC)C(=O)NC)cc1` (racemic), for which the Activity in assay [1] was 50%; in [2], 90%; in assay [3], less than 90%; in assay [15], 90%.

Take `CNC(=O)C(OC)c1ccccc1CO/N=C(\C)c1ccccc1Cl` (racemic): the Activity in assay [19] was 90%; in assay [2], 90%; in assay [3], less than 90%; in [20] it was 50%.

Regarding `CNC(=O)C(OC)c1ccccc1COCc1ccccc1` (racemic), the Activity is listed as less than 90% in [19], 90% in [2], less than 90% in assay [3] and less than 50% in [20].

In the case of `CNC(=O)C(OC)c1ccccc1CO/N=C(\C)c1ccc(Cl)c(Cl)c1` (racemic), the Activity in [11] was found to be 50%; in [12], 90%; in [15], 90%; in assay [16], 90%.

With `CNC(=O)C(OC)c1ccccc1CO/N=C(\C)c1ccc(C(C)(C)C)cc1` (racemic), the Activity is listed as 50% in assay [1], 90% in assay [2], less than 90% in assay [3] and 90% in assay [15].

On to `CNC(=O)C(OC)c1ccccc1CO/N=C(\C)c1ccc(-c2ccccc2)cc1` (racemic), for which the Activity in assay [11] is listed as 50%; in [2], less than 90%; in [3] it was less than 90%; in assay [15] it was 90%.

As to `CNC(=O)C(OC)c1ccccc1CO/N=C(\C)c1ccccc1C(F)(F)F` (racemic), the Activity in assay [19] was 90%; in [2], less than 90%; in [3], less than 90%; in [20], less than 50%.

Consider `CNC(=O)C(OC)c1ccccc1CO/N=C(\C)c1ccc(C)cc1` (racemic), for which the Activity amounted to 50% in assay [11], 90% in [3], 90% in assay [15] and 90% in assay [16].

In the case of `CNC(=O)C(OC)c1ccccc1Oc1ccccc1` (racemic), the Activity was less than 90% in [19], less than 90% in assay [2], less than 90% in assay [3] and less than 50% in [20].

Regarding `CNC(=O)C(OC)c1ccccc1COC(=O)c1ccccc1` (racemic), the Activity is recorded as less than 90% in assay [19], 90% in [2], less than 90% in [3] and less than 50% in assay [20].

On to `CNC(=O)C(OC)c1ccccc1CO/N=C(\C)c1cccc(Cl)c1` (racemic), for which the Activity in [11] is 50%; in [12] it was 90%; in [15], 90%; in assay [16], 90%.

In the case of `CNC(=O)C(OC)c1ccccc1CO/N=C(\C)c1ccc(O)cc1` (racemic), the Activity in [19] was less than 90%; in [2], 90%; in assay [3] it was less than 90%; in assay [20] it was less than 50%.

For the molecule `CNC(=O)C(OC)c1ccccc1CO/N=C(/C)c1ccc(Cl)cc1` (racemic), the Activity in assay [6] was 90%; in assay [3] it was less than 90%; in assay [20], 50%; in [4] it was 90%.

With `CNC(=O)C(OC)c1ccccc1CO/N=C(\C)c1ccc(Br)cc1` (racemic), the Activity in assay [11] was determined as 50%; in assay [12], 90%; in assay [15], 90%; in assay [16], 90%.

Turning to `CC/C(=N\OCc1ccccc1C(OC)C(=O)NC)c1ccc(Cl)cc1` (racemic), the Activity in assay [11] turned out to be 50%; in assay [14], 90%; in [15], 90%; in [16], 90%.

As for `CNC(=O)C(OC)c1ccccc1CO/N=C(\C)c1ccc(C)c(C)c1` (racemic), the Activity in assay [1] came out at 50%; in [15] it was 90%; in assay [16] it was 90%; in assay [18], 90%.

Turning to `CNC(=O)C(OC)c1ccccc1CO/N=C(/C)c1ccc(OC)cc1` (racemic), the Activity in assay [19] was 90%; in assay [2], 90%; in assay [3], less than 90%; in assay [20], 50%.

For `CNC(=O)C(OC)c1ccccc1CO/N=C(\C)c1cccc(C(F)(F)F)c1` (racemic), the Activity in assay [11] was determined as 50%; in [3] it was 90%; in [15], 90%; in assay [16], 90%.

Take `CCc1ccc(/C(C)=N/OCc2ccccc2C(OC)C(=O)NC)cc1` (racemic): the Activity came to 50% in assay [11], 90% in [3], 90% in assay [15] and 90% in [16].

With `CNC(=O)C(OC)c1ccccc1CO/N=C(\C)c1ccc(Cl)cc1` (racemic), the Activity was 70% in assay [5]; 100% in assay [6]; 50% in assay [7]; 0% in assay [8]; 100% in assay [9]; 0% in assay [10]. Also, the Activity in assay [11] turned out to be 50%; in assay [12], 70%; in assay [13] it was 0%; in [2], 100%; in assay [14], 0%; in assay [3], 97%. Moreover, the Activity in [15] is listed as 90%; in [16], 100%; in assay [17], 5%; in assay [18], 85%.

As to `CNC(=O)C(OC)c1ccccc1CO/N=C(/C)c1ccc(C(F)(F)F)cc1` (racemic), the Activity in assay [6] is reported as 90%; in assay [3], less than 90%; in [20] it was 50%; in assay [15] it was 90%.

Turning to `CNC(=O)C(OC)c1ccccc1CO/N=C/c1ccccc1` (racemic), the Activity is less than 90% in [19], less than 90% in assay [2], less than 90% in [3] and 50% in assay [20].

(Values after ChEMBL document CHEMBL3046629, “Fungicidal Activities of 2-Methoxy-2-[2-(benzylideneaminooxymethyl)phenyl]-N-methylacetamide Derivatives” (2002).)
